Among the data in US20230339851A1, “CXCR6 SULFONAMIDE COMPOUNDS” (CHEMOCENTRYX, INC., priority 2022, published 2023) are IC50 values, retold here.

Structures are written as SMILES.

What is called IC50 is the concentration needed to halve the response being measured.

T1 sequence (O00574 whole entry): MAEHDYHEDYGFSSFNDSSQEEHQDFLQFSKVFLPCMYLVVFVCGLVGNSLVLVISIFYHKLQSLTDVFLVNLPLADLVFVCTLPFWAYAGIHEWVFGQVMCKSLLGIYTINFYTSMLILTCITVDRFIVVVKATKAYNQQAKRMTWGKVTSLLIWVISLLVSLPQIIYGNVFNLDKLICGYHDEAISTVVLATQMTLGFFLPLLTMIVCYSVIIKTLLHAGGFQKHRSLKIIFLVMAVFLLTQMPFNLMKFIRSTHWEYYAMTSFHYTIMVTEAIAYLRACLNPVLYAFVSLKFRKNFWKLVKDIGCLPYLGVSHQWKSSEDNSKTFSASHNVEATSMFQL

The experiment addresses T1, human CXCR6 (Homo sapiens, UniProt O00574).
T1 construct: expressed in transfected cells
As to the kind of experiment: Radioligand Binding Assay (125I-CXCL16 displacement). As to conditions: L1.2 cells stably transfected with human CXCR6 cDNA, 0.1 nM 125I-CXCL16, 4° C., three-hour incubation; read-out: Potency (IC50). On the procedure:
L1.2 cells stably transfected with human CXCR6 cDNA ([…]) were incubated at 4° C. in HBSS containing 0.1 % BSA and 0.1 nM of ^125I-CXCL16 plus various concentrations of Compound. Following a three-hour incubation period, cells were aspirated onto polyethyleneimine-treated GF/B glass fiber filters (PerkinElmer, Waltham, MA) with a cell harvester (Tomtec, Hamden, CT) and washed twice with washing buffer (25 mM Hepes, 500 mM NaCl, 1 mM CaCI2, 5 mM MgCI2, pH 7.1). Fifty µl of MicroScint-20 (PerkinElmer, Waltham, MA) was added to each well of the filters, and radioactive emissions (cpm) were measured on a Packard TopCount Scintillation counter (PerkinElmer, Waltham, MA). IC50 values were calculated with GraphPad Prism using 3 parameter nonlinear regression. […]
On to `CCOc1cc(NC(=O)C2CC=CC[C@H]2N)ccc1S(=O)(=O)Nc1cccc(OC(F)(F)F)c1` (mixture of isomers) [Example 1.026], for which the IC50 lay within 750 to 2000 nM.
As to `CCOc1cc(NC(=O)C2CCO[C@@H]2C)ccc1S(=O)(=O)Nc1cccc(OC(F)(F)F)c1` (mixture of isomers) [Example 1.137], the concentration for half-maximal inhibition (IC50) lay in the range of 200 to 750 nM.
As to `CCOc1cc(NC(=O)C2COC[C@H]2O)ccc1S(=O)(=O)Nc1cccc(OC(F)(F)F)c1` (mixture of isomers) [Example 1.518], the half-maximal inhibitory concentration (IC50) lay in the range of 200 to 750 nM.
Consider `COc1cc(NC(=O)[C@@H]2CCOC[C@H]2C)ccc1S(=O)(=O)Nc1cccc(OC(F)(F)F)c1` (racemic) [Example 1.007], for which the half-maximal inhibitory concentration (IC50) lay in the range of 200 to 750 nM.
Regarding `CCOc1cc(NC(=O)[C@@H]2COC[C@@H]2O)ccc1S(=O)(=O)Nc1cccc(OC(F)(F)F)c1` (racemic) [Example 1.010], the concentration for half-maximal inhibition (IC50) was 200 to 750 nM.
For the molecule `CCOc1cc(NC(=O)[C@H]2CCOC[C@@H]2CC)ccc1S(=O)(=O)Nc1cccc(OC(F)(F)F)c1` (racemic) [Example 1.065], the half-inhibitory concentration (IC50) is not above 200 nM.
As for `CCOc1cc(NC(=O)[C@H]2CCOC[C@H]2O)ccc1S(=O)(=O)Nc1cccc(OC(F)(F)F)c1` (racemic) [Example 1.107], the IC50 is 200 to 750 nM.
Regarding `CCOc1cc(NC(=O)[C@H](C2CCCC2)[C@@H](C)O)ccc1S(=O)(=O)Nc1cccc(OC(F)(F)F)c1` (racemic) [Example 1.147], the half-maximal inhibitory concentration (IC50) was not above 200 nM.
Consider `CCOc1cc(NC(=O)[C@H]2CC=CC[C@@H]2C(=O)O)ccc1S(=O)(=O)Nc1ccc(C)c(OC(F)(F)F)c1` (racemic) [Example 1.167], for which the half-inhibitory concentration (IC50) was in the range of 2000 to 20000 nM.
For `COc1cc(NC(=O)[C@H]2CCOC[C@H]2C)ccc1S(=O)(=O)Nc1cccc(C(F)(F)F)c1` (racemic) [Example 1.219], the 50% inhibitory concentration (IC50) lay in the range of 200 to 750 nM.
As for `CCOc1cc(NC(=O)[C@H]2CCOC[C@H]2CC)ccc1S(=O)(=O)Nc1cccc(OC(F)(F)F)c1` (racemic) [Example 1.233], the half-maximal inhibitory concentration (IC50) is not above 200 nM.
With `CCOc1cc(NC(=O)[C@H]2CCOC[C@@H]2COC)ccc1S(=O)(=O)Nc1cccc(OC(F)(F)F)c1` (racemic) [Example 1.237], the IC50 lay in the range of 200 to 750 nM.
As to `CCOc1cc(NC(=O)[C@H]2CCCC[C@H]2C(=O)O)ccc1S(=O)(=O)Nc1ccc(C)c(OC(F)(F)F)c1` (racemic) [Example 1.314], the IC50 lay within 750 to 2000 nM.
The figure for `CCOc1cc(NC(=O)[C@H]2CC=CC[C@H]2C(=O)O)ccc1S(=O)(=O)Nc1ccc(C)c(OC(F)(F)F)c1` (racemic) [Example 1.333] is 750 to 2000 nM.
For `C[C@@H]1COCC[C@@H]1C(=O)Nc1ccc(S(=O)(=O)Nc2cccc(OC(F)(F)F)c2)c(C#N)c1` (racemic) [Example 1.341], the half-inhibitory concentration (IC50) was in the range of 2000 to 20000 nM.
For the molecule `CCOc1cc(NC(=O)[C@H]2CCOC[C@@H]2C)ccc1S(=O)(=O)Nc1cccc(OC(F)(F)F)c1` (racemic) [Example 1.477], the IC50 was not above 200 nM.
Consider `Cc1cc(NC(=O)[C@H]2CCOC[C@H]2C)ccc1S(=O)(=O)Nc1cccc(C(F)(F)F)c1` (racemic) [Example 1.483], for which the IC50 was in the range of 200 to 750 nM.
The figure for `CCOc1cc(NC(=O)[C@H]2CCOC[C@H]2C)ccc1S(=O)(=O)Nc1cccc(OC(F)(F)F)c1` (racemic) [Example 1.514] is not above 200 nM; for `Cc1cc(NC(=O)c2ccn(C)n2)ccc1S(=O)(=O)Nc1cccc(C(F)(F)F)c1` [Example 1.001] it is 2000 to 20000 nM.
In the case of `Cc1cc(NC(=O)c2ccc(F)cc2)ccc1S(=O)(=O)Nc1cccc(C(F)(F)F)c1` [Example 1.002], the half-maximal inhibitory concentration (IC50) is 200 to 750 nM.
For `CCOc1cc(NC(=O)[C@@H](CO)c2ccccc2)ccc1S(=O)(=O)Nc1ccc(C)c(OC(F)(F)F)c1` [Example 1.003], the half-maximal inhibitory concentration (IC50) was not above 200 nM.
For `CCOc1cc(NC(=O)[C@@H](CO)C(C)C)ccc1S(=O)(=O)Nc1ccc(Cl)c(OC(F)(F)F)c1` [Example 1.004], the IC50 is not above 200 nM.
Turning to `CCOc1cc(NC(=O)[C@@H](CO)C(C)C)ccc1S(=O)(=O)Nc1ccc(OC)c(C(F)(F)F)c1` [Example 1.005], the IC50 is not above 200 nM.
